# Laboratory results as given in US7338932B2, “Methods of modulating functions of polypeptide GalNAc-transferases and of screening test substances to find agents herefor, pharmaceutical compositions comprising such agents and the use of such agents for preparing medicaments” (Glycozym APS, priority 2000, dated 2008).
# How the values were obtained:
# [1] = test system: wild type CHO/MUC1sol-cloneC4; assay: Secretion of MUC1, western blot of medium; format: cell-based, Chinese Hamster; settings: 1-2 mM; compared to control treated or non-treated cells
# Method: In order to characterize the secreted MUC1 product SDS-PAGE western blot analysis of harvested culture medium of confluent cultures were performed. Ten to twenty μL culture supernatant was analysed directly or treated with 0.1 U/mL neuraminidase (C. Perfringes VI, Sigma) for 30-60 min at 37° C. Samples were mixed with SDS sample buffer, reduced with DTT, and run on precast 4-20% gels (Biorad). As shown in FIG. 9 anti-MUC1 antibodies detected two forms of MUC1 in the medium; a low molecular weight form migrating as 130-140 kd corresponding to unglycosylated product, and a high molecular weight form migrating above 250 kd. The high molecular weight form was sensitive to neuraminidase treatment as evidenced by a marked shift and retardation in migration. […]
# Because GalNAcα-benzyl exerts separate effects on O-glycan processing and mucin expression, the use of the novel selective inhibitor of mucin expression, GalNAcβ-benzyl, allow analysis of mucin expression and secretion in different cell line models. […] Most human adenocarcinoma cell lines express and secret mucins and analysis with antibodies to detect protein expression or probes to detect mRNA can reveal the types and quantities of mucins. […] The inhibitory effect on mucin secretion can be quantified by a number of assays known to the skilled in the art including western blot, ELISA, gelfiltration, immunocapture, and other assays.
# GalNAc-T4 = target: T1, GalNAc-T4 (Homo sapiens, UniProt Q8N4A0); assay: Inhibition of glycosylation dependent (GalNAc-glycopeptide) activity of GalNAc-T4, MALDI-TOF time-course; format: biochemical; settings: 10 mM benzyl sugar
# T1 construct: using the GalNAc-T4-sol construct that encodes residues 32-578 inserted into pT7T3U19; made in house; host or cells: High Five insect cells (baculovirus, pAcGP67)
# Method: MALDI-TOF time-course in terminal reactions were performed in reactions of 25 μl containing 2.5 nmol acceptor (glyco)peptide, 40 nmol UDP-GalNAc, and 0.4 μg GalNAc-T4. Sampling of reactions (1 μl) were purified by nano-scale reversed-phase chromatography (Poros R3, PerSeptive Biosystem) and applied directly to the probe with matrix (41). The amount of GalNAc-transferase added was adjusted so that the reaction with the appropriate peptide was near completion in six hours. Reactions were incubated at 37° C. in a shaker bath. At times 0, 2 hours, and 16 hours a 1 μl aliquot was taken and purified. Mass spectra were acquired on either Voyager-DE mass spectrometer equipped with delayed extraction (Perseptive Biosystem Inc.). The matrix used was 2,5-dihydroxybenzoic acid (10 mg/ml, Hewlett-Packard) dissolved in a 2:1 mixture of 0.1% trifluoroacetic acid in 30% aqueous acetonitrile (Rathburn Ltd.).
# Quantification of purified proteins was done by Coomassie stained SDS-PAGE and titration of immunoreactivity with the monoclonal antibody, UH6(4G2) (8). […] Wild-type GalNAc-T4 and mutant GalNAc-T4, GalNAc-T4^459H, were analysed with unglycosylated peptides (represented by PSGL-1) or GalNAc glycosylated glycopeptides (represented by GalNAc3TAP25V21) in reactions of 25 μl containing 2.5 nmol acceptor (glyco)peptide, 40 nmol UDP-GalNAc, and 0.4 μg GalNAc-T4. Time-course assays were motioned by MALDI-TOF. Sampling of reactions (1 μl) were purified by nano-scale reversed-phase chromatography (Poros R3, PerSeptive Biosystem) and applied directly to the probe with matrix. Evaluation of inhibition of the glycopeptide specificity of wild-type GalNAc-T4 with free sugars was performed to establish if the lectin domain recognized carbohydrate. […] Further, analysis was performed with 10 mM α-D-GalNAc-1-benzyl, αGlcNAc-benzyl, and fully occupied GalNAc-glycopeptide, GalNAc6TAP25, at 5 mM.
# [2] = target: T2, secreted soluble GalNAc-T2 (sT2) (Homo sapiens, UniProt Q10471); assay: Direct binding ELISA to GalNAc-MUC1 glycopeptide, competitive inhibition, sT2
# T2 construct: HIS-tagged secreted human GalNAc-T2 and -T4 were prepared from pAC-GP67-T2-sol and pAC-GP67-T4-sol cDNA; 6xHis (N); thrombin cleavage site (N); T7 tag (N); made in house; host or cells: High Five insect cells (baculovirus)
# Method: (§1) Protein biotinylation was made as previously reported^62. The pH of 1 ml purified protein (0.3 mg/ml) in PBS was adjusted to pH 9 with 1 M NaOH and 40 μl N-hydroxy-succinimidobiotin (Sigma) dissolved in DMF (10 mg/ml) was added. The solution was mixed end-over-end for 2 hours at room temperature, and dialyzed three times against PBS and an equal volume of glycerol was added. The biotinylated proteins were stored at −20° C. in 50% glycerol until use.
# (§2) Direct binding ELISA assay was developed as follows: Polystyrene microtiter plates (Maxisorb, Nunc, Denmark) were coated with peptides or enzymatically glycosylated glycopeptides in PBS overnight at 4° C. Plates were washed and blocked with 0.1% Tween20 and 0.2% BSA in PBS for 1 h at room temperature, followed by incubation with biotinylated proteins in PBS with 0.05% Tween20 for 2 h at room temperature. After four washes with PBS, plates were incubated with 1:2,000 dilution streptavidin-HRP (Sigma) in PBS for 30 min at room temperature and washed four times with PBS. Development was performed with 0.5 mg/ml o-phenylenediamine and 0.02% H2O2 at room temperature for 15 min, and reaction stopped by adding 100 μl/well of 0.5 N H2SO4. Competitive inhibition assays were done at end-point titers of GalNAc-transferase proteins with one hour preincubations with inhibitor.
# (§3) In binding studies using lectins without biotinylation antibodies to the HIS-tag and the T7-tag, or in some experiments antibodies raised to GalNAc-T2 and -T4 enzymes were used to detect binding.
# [3] = target: T3, GalNAc-T4 lectin domain (T4ld) (Homo sapiens, UniProt Q8N4A0); assay: Direct binding ELISA to GalNAc-MUC1 glycopeptide, competitive inhibition, T4ld
# T3 construct: made in house; host or cells: High Five insect cells (baculovirus, pAcGP67-A)
# Method: as §1, §2, §3
# T1 sequence (Q8N4A0 32-578): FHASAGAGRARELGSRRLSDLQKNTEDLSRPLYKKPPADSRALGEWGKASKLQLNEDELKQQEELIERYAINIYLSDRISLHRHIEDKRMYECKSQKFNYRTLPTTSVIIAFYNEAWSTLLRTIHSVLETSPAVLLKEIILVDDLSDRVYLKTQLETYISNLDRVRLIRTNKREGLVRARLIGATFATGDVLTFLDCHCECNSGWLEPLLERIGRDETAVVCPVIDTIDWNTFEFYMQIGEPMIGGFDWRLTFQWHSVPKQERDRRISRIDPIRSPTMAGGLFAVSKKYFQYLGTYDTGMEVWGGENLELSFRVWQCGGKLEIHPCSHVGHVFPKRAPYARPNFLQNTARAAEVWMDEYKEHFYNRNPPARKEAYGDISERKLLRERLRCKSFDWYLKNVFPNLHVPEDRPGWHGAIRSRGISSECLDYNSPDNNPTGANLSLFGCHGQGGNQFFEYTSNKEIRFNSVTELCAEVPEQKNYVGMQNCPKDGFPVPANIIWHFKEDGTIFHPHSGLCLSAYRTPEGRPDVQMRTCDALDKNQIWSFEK
# T3 sequence (Q8N4A0 405-578): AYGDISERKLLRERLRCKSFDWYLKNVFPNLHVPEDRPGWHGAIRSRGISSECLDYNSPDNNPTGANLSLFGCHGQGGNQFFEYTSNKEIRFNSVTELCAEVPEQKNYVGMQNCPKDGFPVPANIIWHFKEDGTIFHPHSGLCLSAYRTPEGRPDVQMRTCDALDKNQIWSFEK
# T2 sequence (Q10471 52-571 limits assumed): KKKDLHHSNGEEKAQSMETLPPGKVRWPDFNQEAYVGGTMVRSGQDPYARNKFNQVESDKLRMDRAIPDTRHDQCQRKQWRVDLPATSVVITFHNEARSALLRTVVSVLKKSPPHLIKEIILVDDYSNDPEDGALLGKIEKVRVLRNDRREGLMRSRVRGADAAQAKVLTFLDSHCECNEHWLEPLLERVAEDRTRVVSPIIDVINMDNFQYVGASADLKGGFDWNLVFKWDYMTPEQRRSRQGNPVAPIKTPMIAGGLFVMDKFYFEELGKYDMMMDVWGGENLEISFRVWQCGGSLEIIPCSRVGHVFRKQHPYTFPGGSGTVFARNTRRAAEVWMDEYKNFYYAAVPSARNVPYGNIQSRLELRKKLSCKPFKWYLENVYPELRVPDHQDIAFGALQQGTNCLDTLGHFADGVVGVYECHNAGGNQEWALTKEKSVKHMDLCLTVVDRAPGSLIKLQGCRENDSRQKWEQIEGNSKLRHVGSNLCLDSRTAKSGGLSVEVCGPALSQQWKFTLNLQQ
SMILES,Secreted MUC1 in medium [1],Inhibition of glycosylation dependent specificity of GalNAc-T4 (GalNAc-T4),IC50 [2] [mM],IC50 [3] [mM]
CC(=O)N[C@H]1[C@@H](OCc2ccccc2)O[C@H](CO)[C@H](O)[C@@H]1O [GalNAcα-benzyl],inhibition of secreted MUC1,–,–,–
CC(=O)N[C@H]1[C@@H](OCc2ccccc2)O[C@H](CO)[C@@H](O)[C@@H]1O [GlcNAcα-benzyl],–,did not inhibit,> 100,> 100
